Assay results taken from ChEMBL document CHEMBL5726853, “3-acetylenyl-pyrazole-pyrimidine derivative, and preparation method therefor and uses thereof” (2019).

Target: Proto-oncogene tyrosine-protein kinase Src (Homo sapiens, UniProt P12931)
Sequence (P12931 2-536 limits assumed): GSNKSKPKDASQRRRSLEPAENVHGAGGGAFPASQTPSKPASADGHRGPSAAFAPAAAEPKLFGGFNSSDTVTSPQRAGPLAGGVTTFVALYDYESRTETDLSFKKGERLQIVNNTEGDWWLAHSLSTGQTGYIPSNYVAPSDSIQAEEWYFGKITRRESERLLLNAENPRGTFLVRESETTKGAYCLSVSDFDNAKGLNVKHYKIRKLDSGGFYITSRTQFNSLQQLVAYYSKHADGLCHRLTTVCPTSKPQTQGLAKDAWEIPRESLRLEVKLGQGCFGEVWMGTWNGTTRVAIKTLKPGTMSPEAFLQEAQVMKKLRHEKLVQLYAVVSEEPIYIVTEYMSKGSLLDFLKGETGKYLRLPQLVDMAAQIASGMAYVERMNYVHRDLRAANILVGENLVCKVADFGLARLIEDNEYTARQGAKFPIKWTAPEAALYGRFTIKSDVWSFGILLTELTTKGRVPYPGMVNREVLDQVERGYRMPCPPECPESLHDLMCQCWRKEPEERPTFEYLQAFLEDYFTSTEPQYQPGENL

For `Cc1ccc(NC(=O)c2ccc(CN3CCN(C)CC3)cc2)cc1C#Cc1nn(C(C)C)c2ncnc(N)c12`, which IC50 is on record?
The IC50 was 4 nM.
